Measured values reported in a melting point compilation (Tetko et al.; mined from patent text by program, amines drawn as free bases though some values may be those of a salt).

First: CCCCc1nc2cccc(C(=O)O)c2n1Cc1ccc(-c2ccccc2-c2n[nH]c(=O)o2)cc1
Second: O=C(O)CCCN(C(=O)c1ccc(Cl)cc1)c1ccccc1-c1ccccc1
The melting point of the first is higher: 204 to 205 °C for the first, 135 to 137 °C for the second.

Compared with `O=C1c2ccccc2C(=O)N1C1CC=CCC1` (stereo not drawn), `O=C(Nc1ccccn1)Nc1cccc2c1C1CCCCN1C2=O` (stereo not drawn) is higher in melting point: 114 °C for the first, 142 °C for the second.

First: CCOC(=O)c1cc(=O)nc2n1-c1ccccc1OC2
Second: Cc1nc2cc3c(cc2c(=O)n1COC(=O)C(C)(C)C)CCC3
The melting point of the first is higher: 174 to 175 °C for the first, 128 °C for the second.

First: CN1C=C(C(=O)O)C(=O)CC1c1ccc(Cl)cc1 (stereo not drawn)
Second: O=C(NCc1ccc(Cl)cc1)c1cnc2ccc(I)cn2c1=O
The melting point of the first is higher: 205 to 206 °C for the first, 191 to 194 °C for the second.

First: COc1cc2c(c3c1OC(C)(C)C3)C(c1ccnc(-n3c(=O)cc(C)c4ccccc43)c1)=NC(C)(C)C2
Second: COc1ccccc1-n1c(-c2ccc(N(C)C)cc2)nnc1C(C)O (stereo not drawn)
The melting point of the first is higher: 218 to 219 °C for the first, 145 °C for the second.

First: COc1cccc(Nc2n[nH]c3ncn(-c4cccc(Cl)c4)c(=N)c23)c1
Second: CNC(=O)c1ccccc1Nc1nc(Nc2ccc3c(c2)CCCC(=O)N3C)ncc1Cl
The melting point of the first is lower: 190 to 192 °C for the first, 244 to 246 °C for the second.

First: Cc1cc(I)ccc1OC=C1C=CC=CC1n1nnn(C)c1=O (stereo not drawn)
Second: CCC(C)Nc1cc(-c2ccc(Cl)cc2)nc2nn(C)cc12 (stereo not drawn)
The melting point of the first is lower: 128 to 130 °C for the first, 208 to 209 °C for the second.

First: COc1ccc(C(=O)Nc2ccccc2)cc1NCc1cccc2ccccc12
Second: CCOC(=O)Cc1ccc(NC(=O)C(COc2ccccc2Cl)NS(=O)(=O)c2ccc(I)cc2)cc1 (racemic)
The melting point of the first is higher: 172 to 174 °C for the first, 140 to 142 °C for the second.

First: CC(C)=NNc1ccnc2c(NC(=O)c3c(Cl)cccc3Cl)cc(C)cc12
Second: Cc1c(Cl)cc(NC(=O)C(=O)Nc2cc(Cl)c(C)c(Cl)c2O)c(O)c1Cl
The melting point of the first is lower: 242 to 245 °C for the first, 330 °C for the second.

Compared with `N#CC(C#N)=C1N(CCCN2CCCCC2)CCCN1CCCN1CCCCC1`, `Fc1ccc(C2CCN(CCN(CCN3CCC(c4ccc(F)cc4)CC3)c3ccccc3)CC2)cc1` is higher in melting point: 88 to 90 °C for the first, 104 to 105 °C for the second.

First: CCC12CCC3c4ccc(OC)cc4C(C)CC3C1CCC21OCCO1 (stereo not drawn)
Second: CCCN(C1CC(C)(C)Oc2ccc(OCCOC)cc21)S(=O)(=O)CC (stereo not drawn)
The melting point of the first is higher: 130 to 134 °C for the first, 78 to 80 °C for the second.

First: CCCc1c(OCCCOc2ccc3c(c2CCC)OC(C(C)=O)(C(=O)OC)CC3)ccc(C(C)=O)c1O (stereo not drawn)
Second: CCCCOCCOc1ccc(-c2ccc3c(c2)C=C(C(=O)Nc2ccc(S(=O)Cc4nncn4CCC)nc2)CCN3CC(C)C)cc1 (stereo not drawn)
The melting point of the first is lower: 58 to 59 °C for the first, 135 to 138 °C for the second.

First: Cc1ncc(COP(=O)(O)O)c(CN(CCN(CC(=O)O)Cc2c(COP(=O)(O)O)cnc(C)c2O)CC(=O)O)c1O
Second: CCCCCCCCOC(=O)CCc1cc(-n2nc3ccc(S(=O)(=O)c4ccccc4)cc3n2)c(O)c(C(C)(C)C)c1
The melting point of the first is higher: 174 to 180 °C for the first, 62 to 63 °C for the second.

First: COc1ccc(C(=O)c2ccc3cc(OC)ccc3c2)c(ON=C(C)C)c1
Second: COc1ccc(Cc2cc(OC)c(OC)c(OC)c2)cc1
The melting point of the first is higher: 117 to 118 °C for the first, 66 to 67 °C for the second.

Compared with `N=C(Nc1ccc(F)c(NC(=O)/C=C/c2ccccc2C(F)(F)F)c1)c1cccs1`, `COC(=O)C(=O)c1cc(F)c(OCCOc2ccc3ccccc3c2)c(F)c1` is lower in melting point: 208 to 209 °C for the first, 114 to 115 °C for the second.

First: ON=Cc1ccc(-c2ccc(O)cc2)c2sccc12
Second: O=C1CCc2c(-c3ccncc3)sc(-c3ccc(F)cc3)c21
The melting point of the first is higher: 230 to 231 °C for the first, 193 to 195 °C for the second.

First: O=C(NCCO)c1csc(-c2cccc([N+](=O)[O-])c2)n1
Second: O=C(Oc1ccccc1)C1CCCc2ccc([N+](=O)[O-])cc21 (stereo not drawn)
The melting point of the first is higher: 145 to 146 °C for the first, 83 to 84 °C for the second.

Compared with `Cn1ccnc1Sc1c(N)cccc1Cl`, `Cc1ccc2c(c1)-c1csc(N)c1C2=O` is higher in melting point: 123 to 124 °C for the first, 157 to 159 °C for the second.

First: O=C1NC(=O)C(=Cc2ccc(OCCN3CCN(c4ccccn4)CC3)cc2)S1
Second: Clc1ccc(C2CCN(CCCOc3ccc4c(c3)CNCCC4)CC2)cc1
The melting point of the first is higher: 158 to 160 °C for the first, 97 to 99 °C for the second.

Going from `CC(C)(C)OC(=O)N1CC[C@H](CNCc2ccccc2)[C@@H](O)C1` to `CCCCCCNC(=O)Oc1ccc2c(c1)N(Cc1ccccc1)CCC2`, the melting point falls from 91 °C to 85 °C.

First: Fc1nc(NCc2ccccn2)c2nc[nH]c2n1
Second: OCCCNc1nc(-c2ccc(Cl)c(Cl)c2)nc2ccccc12
The melting point of the first is higher: 217 to 220 °C for the first, 164 to 166 °C for the second.

First: Cc1ccc(CCC(=O)c2ccc(N3CCN(c4ccncc4)CC3)cc2)cc1
Second: COc1ccc(-c2cc3c(n2-c2ccc(O)c(C(=O)O)c2)CCCC3)cc1
The melting point of the first is lower: 130 to 132 °C for the first, 219 to 221 °C for the second.

Compared with `CCc1cc2c(s1)SCCc1cc(=O)[nH]nc1-2`, `CCn1cc(C(=O)O)c(=O)c2cc(F)c(N3CC4CCC3CN4)cc21` (stereo not drawn) is higher in melting point: 256 to 258 °C for the first, 270 to 272 °C for the second.

First: Nc1ncc2ncn(OC(CO)CCO)c2n1 (stereo not drawn)
Second: CCC(CC)(COc1cc(C)c2nc(C)nn2n1)CS(N)(=O)=O
The melting point of the first is higher: 178 to 179 °C for the first, 159 to 160 °C for the second.

First: CC(=O)OC1CSC(Oc2cccc3onc(C)c23)C(OC(C)=O)C1OC(C)=O (stereo not drawn)
Second: COc1cc(NC(=O)OC(C)(C)C)c(NC(=O)CC(=O)c2cccc(C#N)c2)cc1C#Cc1ccccc1
The melting point of the first is lower: 155 to 158 °C for the first, 169 °C for the second.

First: OC1(C2CCN(Cc3ccccc3)CC2)c2ccsc2CCn2ccnc21 (stereo not drawn)
Second: Oc1c(CN2CCSCC2)ncc2c1COC2c1ccccc1 (stereo not drawn)
The melting point of the first is higher: 189 °C for the first, 185 °C for the second.

First: Cc1cc(C(=O)c2ccc(C(=O)c3cc(C)c(OCC4CO4)c(C)c3)cc2)cc(C)c1OCC1CO1 (stereo not drawn)
Second: O=C(c1ccc(OCC2CO2)cc1)c1cccc(C(=O)c2ccc(OCC3CO3)cc2)c1 (stereo not drawn)
The melting point of the first is higher: 164 to 170 °C for the first, 88 to 93 °C for the second.

First: CCCCCCCCCCOC(C)c1ccc(C(=O)O)cc1 (single isomer, unassigned; (+))
Second: CCCCCCCCCCCCOc1cc(O)c(C(=O)c2ccccc2)cc1Cl
The melting point of the first is lower: 56.6 to 57.5 °C for the first, 75 to 77 °C for the second.

First: COCC1(C)CCOc2ccc(C#Cc3ccc(C(=O)O)cc3)cc21 (stereo not drawn)
Second: CC1(C)CCC(C)(C)c2cc(-c3cc(-c4ccc(C(=O)O)cc4)ccc3CC(O)CO)ccc21 (stereo not drawn)
The melting point of the first is higher: 202 to 203 °C for the first, 145 °C for the second.

First: c1ccc(C2CCN(CCC(c3ccccc3)(c3ccccc3)c3nnn[nH]3)CC2)cc1
Second: O=C1N(Cc2ccccc2)C2CSC(O)C2N1Cc1ccccc1 (stereo not drawn)
The melting point of the first is lower: 149 to 157 °C for the first, 163 to 164 °C for the second.

Compared with `CC(=O)Nc1nc2cc3[nH]c(-c4ccncc4)nc3cc2[nH]1`, `CS(=O)(=O)N1CCCn2c(nc3c(N)nc4cc(-c5cccnc5)ccc4c32)C1` is lower in melting point: greater than 330 °C for the first, 302 °C for the second.

Compared with `CCCCCCCP(=O)(O)O[C@@H](CCCCN)C(=O)N1CCC[C@H]1C(=O)O`, `CCCCCCCCCCCCCCCCCCC(N)C(N)=O` (stereo not drawn) is lower in melting point: 180 to 186 °C for the first, 103 to 104 °C for the second.

Compared with `CC(C)Nc1cccnc1N1CCN(C(=O)c2ccc(C(=O)NC(C)(C)C)cn2)CC1`, `CCOC(=O)c1c[nH]c2nc(N3CCN(C(=O)OCC)CC3)c(F)cc2c1=O` is higher in melting point: 161 to 162 °C for the first, 279 to 281 °C for the second.

Compared with `ClC(c1ccccc1)c1cccnn1` (stereo not drawn), `Fc1cc(C(c2cccc(Cl)c2)n2cncn2)c2ccccc2n1` (stereo not drawn) is higher in melting point: 110 to 112 °C for the first, 140 °C for the second.

Compared with `CNc1cc(NS(=O)(=O)c2ccccc2)ccc1[N+](=O)[O-]`, `CON(c1ccc([N+](=O)[O-])cc1Cl)S(=O)(=O)c1cccc(C(F)(F)F)c1` is lower in melting point: 172 to 174 °C for the first, 95.5 to 96.5 °C for the second.

First: CC(=O)N[C@@H](CSC(=O)C(C)(C)C)C(=O)NCCSC(=O)C(C)(C)C
Second: CC(C)[C@H](N)C(=O)NC(=O)N(CCCl)N=O
The melting point of the first is lower: 109 to 111 °C for the first, 115 to 117 °C for the second.

First: COc1ccc(CC(=O)Nc2c(C)c(C)c3c(c2C)C(c2ccc(C(C)C)cc2)CO3)cc1 (stereo not drawn)
Second: COc1ccc(COC(=O)NC(CO)Cc2ccc(O)cc2)cc1OC (stereo not drawn)
The melting point of the first is higher: 166 to 167 °C for the first, 152 to 155 °C for the second.

Compared with `C[C@H]([C@](O)(Cn1cncn1)c1ccc(F)cc1F)S(=O)(=O)N1CCN(Cc2nncn2C)CC1`, `COCCN1CCN(c2ccc(N3C[C@H](CNC(C)=O)OC3=O)cc2F)CC1` is lower in melting point: 210 to 211 °C for the first, 144 to 146 °C for the second.

First: CCC1COC(=NO)C(=O)N1C (stereo not drawn)
Second: CCOC(=O)C1=CCCCC1S(=O)(=O)Nn1cccc1 (stereo not drawn)
The melting point of the first is higher: 168 to 170 °C for the first, 85 to 86 °C for the second.

First: N#Cc1cccc2c1C(=O)OC2O (stereo not drawn)
Second: Cc1ccc2c(c1)c(Cl)c(C#N)c(=O)n2Cc1ccccc1
The melting point of the first is lower: 138 to 140 °C for the first, 219 °C for the second.

First: Cn1c(C(F)(F)F)cc(=O)n(-c2cc(OCCBr)c(Cl)cc2F)c1=O
Second: O=S(c1cn(-c2c(Cl)cc(C(F)(F)F)cc2Cl)c(Cl)n1)C(F)(F)F (stereo not drawn)
The melting point of the first is lower: 125 to 127 °C for the first, 148 °C for the second.

First: COc1ccc2c3c(c(=O)oc2c1)CN(Cc1cc(OC)c(OC)c(OC)c1)CC3
Second: CCCCc1cn2nc3c(c(=O)n(CCC)c(=O)n3Cc3ccccc3)c2n1C
The melting point of the first is higher: 171 to 173 °C for the first, 139 to 140 °C for the second.

First: CC(=NNc1ccc(C2=NNC(=O)CC2)cc1)c1ccc(C#N)cc1
Second: COC(=O)CCCc1cc2nc(Cl)ccc2n1S(=O)(=O)c1ccc(Br)cc1
The melting point of the first is higher: 288 to 290 °C for the first, 102 °C for the second.

Compared with `O=C(Nc1ccccc1S(=O)(=O)NCC1CCCCC1)N[C@@H](Cc1ccc(NC(=O)c2c(Cl)cncc2Cl)cc1)C(=O)O`, `O=C(NCC1Cc2cccc(-c3c(Cl)cccc3Cl)c2O1)OCc1ccccc1` (stereo not drawn) is lower in melting point: 214 °C for the first, 198 to 200 °C for the second.

Compared with `Nn1cc(C(=O)NCc2ccc(Cl)cc2)c(=O)c2cc(CCCO)ccc21`, `Cc1cc(C=O)c(OCCCCCCc2ccccc2)c(C=O)c1` is lower in melting point: 187 to 188 °C for the first, 64 °C for the second.

First: O=C1CCC(c2ccc(O)cc2)N1 (stereo not drawn)
Second: NC(=S)NNc1ccc(Cl)cc1
The melting point of the first is lower: 183 °C for the first, 200 to 201 °C for the second.

Compared with `CCCCCCCCCCCCCCCCO[C@@H]1CCCO[C@H]1COCc1ccccc1` (relative stereo), `CCOC(=O)C1=C(C=NOc2ccc([N+](=O)[O-])cc2[N+](=O)[O-])NC(CF)=C(C(=O)OCC)C1c1cccc([N+](=O)[O-])c1` (stereo not drawn) is higher in melting point: 28.5 to 29.5 °C for the first, 150 to 152 °C for the second.

First: Cc1ccc(S(=O)(=O)C(C)(C)C(=O)C(C)C)cc1
Second: COC=NS(=O)(=O)c1cc(C(C)C)c(C#N)cc1C(C)C
The melting point of the first is lower: 76 to 79 °C for the first, 130 to 132 °C for the second.

Going from `Cc1sc(C=O)cc1Br` to `CC(C)(C)c1cc(C=O)cc(Br)c1O`, the melting point rises from 58 °C to 126 °C.
